Laboratory results reported in US20240189305A1, “THERAPEUTIC AGENT FOR CORONAVIRUS INFECTION” (FUJIFILM TOYAMA CHEMICAL CO., LTD., priority 2021, published 2024).

Tested on: SARS-CoV-2
Test: Test example 1: placebo-controlled, stratified-randomized, multicenter, double-blind phase 3 study in COVID-19 patients with a risk factor for disease progression at an early stage after onset
Type: in vivo
Settings: patients 50 years or older, onset within 72 hours; oral 1,800 mg twice/day for 1 day + 800 mg twice/day for 9 days

Structure (SMILES): NC(=O)c1nc(F)cnc1O [Compound A, 6-fluoro-3-hydroxy-2-pyrazinecarboxamide]
- therapeutic effect by primary endpoint (proportion of patients with disease progression up to Day 28) and/or secondary endpoints versus placebo: therapeutic effect is higher in the Compound A group than in the placebo group
